# Data from article PMC3921447, “Homologous and heterologous desensitization of guanylyl cyclase-B signaling in GH3 somatolactotropes” (Cell and Tissue Research, 2013).
# Experiments:
# GH3 cells = test: Basal cGMP accumulation in GH3 cells after pre-treatment; assay type: cell-based, rat; conditions: 30 min pre-treatment
# Source text: (§1) Sphingolipids and calcium have been implicated in regulating natriuretic peptide signaling (Abbey-Hosch et al. [2004]; Abbey and Potter [2002]). Therefore, we examined the role of sphingosine-1-phosphate (S1P) on CNP-stimulated cGMP accumulation. […] However, S1P pre-treatment did cause desensitization of CNP-stimulated cGMP accumulation (by 30 ± 2.7 % compared with control, **P < 0.01).
# (§2) Fig. 6 Evidence of sphingosine-mediated but not calcium-mediated, heterologous desensitization of GC-B signaling in GH3 somatolactotrope cells. GH3 cells were pre-treated with PSS containing either (a, b) 10 μM sphingosine-1-phosphate (S1P) or (c, d) 1 μM A23187 (calcium ionophore) for 30 min in the absence of IBMX, before a 15-min stimulation with either 100 nM CNP (a, c) or 100 nM ANP (b, d) in the presence of 1 mM IBMX.
# (§3) Subsequent experiments examined the potential regulation of GC-B signaling by other peptide hormones. To determine whether the GC-B receptor underwent heterologous desensitization in GH3 cells, the effect of three known activators of PKC on CNP-stimulated cGMP accumulation was analyzed. […] To establish whether the TRH-induced heterologous desensitization of GC-B signaling was PKC-dependent, GH3 cells were pre-treated with either 0 or 1 μM GF109203X for 30 min to inhibit PKC activity. After this, cells were further pre-treated in the absence or presence of GF109203X and 0 or 100 nM TRH for a further 30 min, prior to stimulation with 0 or 100 nM CNP for a final 15-min stimulation in the presence of 1 mM IBMX.
# (§4) Fig. 7 Protein kinase C (PKC)-dependent heterologous desensitization mediates the effects of thyrotrophin-releasing hormone (TRH) on CNP-stimulated GC-B signaling in GH3 somatolactotrope cells. a GH3 cells were pre-treated with PSS containing either 0 or 100 nM TRH, phorbol-12-myristate-13-acetate (PMA), or pituitary adenylate cyclase-activating polypeptide (PACAP) for 30 min in the absence of IBMX, before a 15-min stimulation with either 0 or 100 nM CNP in the presence of 1 mM IBMX.
# GC-B [1] = molecular target: T1, GC-B (Rattus norvegicus, UniProt P16067); test: Heterologous desensitization of CNP-stimulated (GC-B) cGMP accumulation in GH3 cells; assay type: cell-based
# T1 construct: rapid homologous desensitization of endogenous GC-B receptors in GH3 cells; endogenous in cells; host or cells: GH3 rat somatolactotrope cells
# T1 sequence (P16067 17-1047): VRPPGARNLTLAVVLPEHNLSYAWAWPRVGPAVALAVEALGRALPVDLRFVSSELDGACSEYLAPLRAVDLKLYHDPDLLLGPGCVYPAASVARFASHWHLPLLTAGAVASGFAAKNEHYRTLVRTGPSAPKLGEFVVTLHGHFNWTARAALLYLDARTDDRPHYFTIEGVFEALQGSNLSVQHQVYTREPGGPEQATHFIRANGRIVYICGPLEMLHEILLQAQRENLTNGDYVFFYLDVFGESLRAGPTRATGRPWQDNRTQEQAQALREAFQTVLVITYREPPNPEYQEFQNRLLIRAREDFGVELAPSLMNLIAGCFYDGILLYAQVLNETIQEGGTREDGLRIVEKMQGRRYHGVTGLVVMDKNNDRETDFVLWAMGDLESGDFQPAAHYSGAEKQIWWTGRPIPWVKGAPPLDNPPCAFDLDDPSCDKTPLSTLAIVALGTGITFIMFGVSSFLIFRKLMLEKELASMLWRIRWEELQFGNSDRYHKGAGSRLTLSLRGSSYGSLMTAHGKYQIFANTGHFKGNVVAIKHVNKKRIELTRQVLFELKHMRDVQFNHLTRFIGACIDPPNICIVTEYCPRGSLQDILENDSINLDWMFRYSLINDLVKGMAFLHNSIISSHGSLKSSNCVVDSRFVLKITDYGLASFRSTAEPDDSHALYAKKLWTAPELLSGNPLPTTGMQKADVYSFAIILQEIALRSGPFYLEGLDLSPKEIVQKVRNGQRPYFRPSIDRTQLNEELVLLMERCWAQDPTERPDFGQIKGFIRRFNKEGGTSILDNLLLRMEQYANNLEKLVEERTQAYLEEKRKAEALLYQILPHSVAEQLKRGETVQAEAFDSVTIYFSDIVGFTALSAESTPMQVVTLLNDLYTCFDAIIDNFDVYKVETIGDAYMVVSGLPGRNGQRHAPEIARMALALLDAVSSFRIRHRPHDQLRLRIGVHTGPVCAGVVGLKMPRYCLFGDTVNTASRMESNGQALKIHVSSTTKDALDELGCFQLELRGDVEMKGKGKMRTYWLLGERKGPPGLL
# Source text: as §1, §2, §3, §4
# GC-B [2] = conditions: NIH3T3, A10, 293 T cells; ref Abbey-Hosch et al. [2004], [2005]; cited from earlier work
# Source text: Heterologous desensitization of the natriuretic peptide receptors has been widely reported. Sphinogosine signaling is implicated in GC-B desensitization in NIH3T3 fibroblasts, A10 vascular smooth muscle cells and 293 T cells (Abbey-Hosch et al. [2004], [2005]). […] In the current study, we observed a modest effect of S1P pre-treatment of CNP-stimulated cGMP accumulation in GH3 ce ...
# GC-B [3] = molecular target: T1, GC-B; test: Effect of protein phosphatase inhibitors on rapid homologous desensitization of CNP-stimulated cGMP accumulation in GH3 cells; assay type: cell-based; conditions: for rate of cGMP accumulation from 5 to 15 min (desensitization): 100 nM CNP, 1 mM IBMX, 30 min pre-treatment with 100 nM OA, 1 nM cypermethrin or 1 mM Na3VO4, control = CNP alone, n = 3; for reversal of the failure to maintain the initial rate of cGMP accumulation: 30 min pre-treatment with phosphatase inhibitor, then 100 nM CNP, discussion statement
# Method: Fig. 2 Rapid homologous desensitization of CNP-dependent but not ANP-dependent cGMP accumulation in GH3 cells. Cells were treated with PSS containing either (a) 100 nM CNP or (b) 100 nM ANP for 0–15 min in the presence of 1 mM IBMX.
# Similar short time-courses were performed, except that some cells were pre-treated with 100 nM okadaic acid (OA, a PP2A inhibitor), 1 nM cypermethrin (a PP2B inhibitor), or 1 mM sodium orthovanadate (Na3VO4, a protein tyrosine phosphatase inhibitor) for 30 min prior to CNP treatment (Fig. 2c).
# GC-A = molecular target: T2, GC-A (Rattus norvegicus, UniProt P18910); test: Heterologous desensitization of ANP-stimulated (GC-A) cGMP accumulation in GH3 cells; assay type: cell-based
# T2 construct: Evidence of homologous desensitization of endogenous GC-A- and GC-B-mediated signaling in GH3 cells; endogenous in cells; host or cells: GH3 rat somatolactotrope cells
# T2 sequence (P18910 29-1057): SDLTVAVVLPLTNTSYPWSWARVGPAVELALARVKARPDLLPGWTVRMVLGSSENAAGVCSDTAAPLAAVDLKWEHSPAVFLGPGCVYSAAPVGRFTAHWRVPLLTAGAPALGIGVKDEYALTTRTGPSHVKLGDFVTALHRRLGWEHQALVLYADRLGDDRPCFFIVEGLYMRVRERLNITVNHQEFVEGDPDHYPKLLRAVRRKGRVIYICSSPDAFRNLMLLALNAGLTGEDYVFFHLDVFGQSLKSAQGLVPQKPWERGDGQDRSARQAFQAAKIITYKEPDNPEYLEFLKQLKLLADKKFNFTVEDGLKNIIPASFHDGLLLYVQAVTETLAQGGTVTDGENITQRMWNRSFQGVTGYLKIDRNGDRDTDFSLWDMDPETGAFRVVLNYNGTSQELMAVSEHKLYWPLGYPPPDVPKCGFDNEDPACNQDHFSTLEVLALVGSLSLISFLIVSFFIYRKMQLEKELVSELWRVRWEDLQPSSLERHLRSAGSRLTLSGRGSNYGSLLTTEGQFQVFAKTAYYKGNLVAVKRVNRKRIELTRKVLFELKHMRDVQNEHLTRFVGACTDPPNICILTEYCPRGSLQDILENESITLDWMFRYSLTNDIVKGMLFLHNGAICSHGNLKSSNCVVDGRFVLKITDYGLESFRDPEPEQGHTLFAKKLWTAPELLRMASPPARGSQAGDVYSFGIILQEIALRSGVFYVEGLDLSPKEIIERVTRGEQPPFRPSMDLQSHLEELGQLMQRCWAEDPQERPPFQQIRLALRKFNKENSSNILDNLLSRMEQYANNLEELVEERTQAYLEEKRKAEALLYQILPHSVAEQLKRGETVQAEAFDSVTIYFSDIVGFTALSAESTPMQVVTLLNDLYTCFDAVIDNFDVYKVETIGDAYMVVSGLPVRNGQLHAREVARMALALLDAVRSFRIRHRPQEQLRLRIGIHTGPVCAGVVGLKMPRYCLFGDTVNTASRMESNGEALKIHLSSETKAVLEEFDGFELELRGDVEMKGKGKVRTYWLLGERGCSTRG
# Source text: as §1
# Fig. 6 Evidence of sphingosine-mediated but not calcium-mediated, heterologous desensitization of GC-B signaling in GH3 somatolactotrope cells. […]
# [4] = 100 nM TRH, PMA or PACAP, ns, P > 0.05, Fig. 7a
compound,measurement,setting,value
thyrotrophin-releasing hormone [TRH],basal cGMP accumulation,GH3 cells; [4],failed to alter basal cGMP accumulation
same,"CNP-stimulated cGMP, % of control response to CNP (reduced to)","GC-B [1]; 100 nM TRH 30 min pre-treatment without GF109203X, then 100 nM CNP 15 min with 1 mM IBMX, P < 0.001, n = 3, Fig. 7b",20.1 ± 5.4%
same,reduction in CNP-stimulated cGMP accumulation compared with control,"GC-B [1]; 100 nM, 30 min pre-treatment without IBMX, then 100 nM CNP 15 min with 1 mM IBMX, ***P < 0.001, n = 3, Fig. 7a",44.6 ± 2.5%
C[C@H](CCC(=O)O)C[C@H](C)C[C@H](C)C(=O)/C=C(\O)[C@H](C)C[C@H](C)C/C=C/[C@@H](C)[C@@H](O)[C@@H](C)[C@@H](O)C[C@@H]1CC[C@@](C)([C@H]2CC[C@@](C)([C@@H](C)O)O2)O1 [ionomycin],mechanism of GC-B desensitization,GC-B [2],having a similar effect
pituitary adenylate cyclase-activating polypeptide [PACAP],basal cGMP accumulation,GH3 cells; [4],failed to alter basal cGMP accumulation
same,effect on CNP-stimulated cGMP accumulation,"GC-B [1]; 100 nM PACAP 30 min pre-treatment, then 100 nM CNP 15 min with 1 mM IBMX, ns, P > 0.05, Fig. 7a",failed to alter CNP-stimulated cGMP accumulation
"C=C1[C@@H](O)[C@@H]2O[C@]3(CC[C@H](/C=C/[C@@H](C)[C@@H]4CC(C)=C[C@@]5(O[C@H](C[C@@](C)(O)C(=O)O)CC[C@H]5O)O4)O3)CC[C@H]2O[C@@H]1[C@@H](O)C[C@H](C)[C@H]1O[C@@]2(CCCCO2)CC[C@H]1C [OA, okadaic acid]",rate of cGMP accumulation from 5 to 15 min (desensitization),GC-B [3],maintained a significant rate of cGMP accumulation from 5 to 15 min
same,reversal of the failure to maintain the initial rate of cGMP accumulation,GC-B [3],partially reversed the failure to maintain the initial rate of cGMP accumulation
CC1(C)C(C=C(Cl)Cl)C1C(=O)OC(C#N)c1cccc(Oc2ccccc2)c1 (stereo not drawn) [cypermethrin],rate of cGMP accumulation from 5 to 15 min (desensitization),GC-B [3],failed to maintain a significant rate of cGMP accumulation
same,reversal of the failure to maintain the initial rate of cGMP accumulation,GC-B [3],failed to reverse the apparent homologous desensitization
"CCCCCCCCCCCCC/C=C/[C@@H](O)[C@@H](N)COP(=O)(O)O [S1P, sphingosine-1-phosphate]",mechanism of GC-B desensitization,GC-B [2],does not require PKC activation but is reliant on the elevation of intracellular Ca^2+ levels
same,basal cGMP accumulation,"GH3 cells; 10 μM S1P, Fig. 6a",failed to significantly alter basal cGMP accumulation
same,desensitization (reduction) of CNP-stimulated cGMP accumulation vs control,"GC-B [1]; 10 μM S1P 30 min pre-treatment without IBMX, then 100 nM CNP 15 min with 1 mM IBMX, **P < 0.01, n = 3, Fig. 6a",30 ± 2.7%
same,desensitization of ANP-stimulated cGMP accumulation,"GC-A; 10 μM S1P 30 min pre-treatment, then 100 nM ANP 15 min with 1 mM IBMX, ns, P > 0.05, Fig. 6b",did not result in desensitization of ANP-stimulated cGMP accumulation
CNc1ccc2oc(C[C@H]3O[C@@]4(CC[C@H]3C)O[C@H]([C@H](C)C(=O)c3ccc[nH]3)[C@H](C)C[C@H]4C)nc2c1C(=O)O [A23187],effect on CNP-stimulated cGMP accumulation,"GC-B [1]; 10 μM A23187 30 min pre-treatment, then 100 nM CNP 15 min, Fig. 6c",failed to alter either CNP- or ANP-stimulated cGMP accumulation
same,effect on ANP-stimulated cGMP accumulation,"GC-A; 10 μM A23187 30 min pre-treatment, then 100 nM ANP 15 min, Fig. 6d",failed to alter either CNP- or ANP-stimulated cGMP accumulation
"[Na+].[Na+].[Na+].[O]=[V]([O-])([O-])[O-] [Na3VO4, sodium orthovanadate]",rate of cGMP accumulation from 5 to 15 min (desensitization),GC-B [3],failed to maintain a significant rate of cGMP accumulation
same,reversal of the failure to maintain the initial rate of cGMP accumulation,GC-B [3],failed to reverse the apparent homologous desensitization
